Results: patent US6809091B1, “Substances capable of inducing apoptosis” (Takara Bio Inc., priority 1998, dated 2004)
Read-outs that look alike come from different tables or passages of the source.

Tests used:
DSEK cells = experiment: cell growth of DSEK cells (rheumatism model in vitro), Premix WST-1; assay type: cell-based, human; conditions: for IC50: Homo sapiens; for inhibition of growth of rheumatism cells / antirheumatic activity: compared with the case where PBS was added
Experimental: (2) DSEK cells (owned by Department of Second Internal Medicine, Total Medical Center, Saitama Medical College, as a rhematism model in vitro) which were fibroblast cell strains established from synovial membrane from a patient suffering from human chronic rheumatism were incubated in an Iscov-MEM medium (IMDM; manufactured by Gibco BRL) containing 10% of FBS (manufactured by BioWhittaker) at 37° C. in the presence of 5% CO2 until the cells saturated in a incubator, a trypsin-EDTA solution (manufactured by BioWhittaker) was suspended in the above medium to an extent of 3×10^4 cells/ml and each 200 μl of the suspension was placed in each well of a 96-well microtiter plate (manufactured by Falcon). When the cells were almost in a state of 80% saturation after 5-7 days from incubation, the medium was exchanged and 200 μl of the above medium containing 50, 75, 100 or 150 μM of 4-hydroxy-2-cyclopenten-1-one or 4,5-dihydroxy-2-pentenal were added thereto.
A time course of 96 hours was adopted and, every 24 hours, 10 μl of Premix WST-1 (MK 400; manufactured by Takara Shuzo) were added followed by reacting at 37° C. for 3.5 hours and the value (A450-650) obtained by subtracting the absorbance at 650 nm (A650) from that at 450 nm (A450) was defined as a degree of cell growth.
(3) DSEK cells were prepared under the conditions as mentioned in Example 15-(2) and 20 μl of medium containing 25, 50, 75, 100, 200 or 400 μM of 4,5-dihydroxy-2-pentenal, 4-hydroxy-2-cyclopenten-1-one, 4-(9-guaninyl)-2-cyclopenten1-one or 2-(3,4-dihydroxy-1-butenyl)-4-(2-formylvinyl)-1,3-dioxolane were added thereto.
A time course of 72 hours was adopted and, every 24 hours, degree of cell growth was measured with a lapse of time. IC50 of each of the compounds was measured as well.

HL-60 cells [1] = experiment: Trypan Blue staining, survival rate; assay type: cell-based; conditions: Homo sapiens, HL-60, 24 hours, concentration where survival rate becomes 50%, read-out: Survival Rate50
Experimental: (3) The cells which were incubated for 24 hours by the same manner as in Example 9-(2) were stained with 0.4% Trypan Blue and observed under an optical microscope, numbers of viable cells which were not stained and of dead cells which were stained in blue were measured, concentration (survival rate50) of each of the samples where survival rate becomes 50% was determined and the result is given in Table 1.

human IL-1α = experiment: cytokine production in DSEK cells, ELISA; assay type: cell-based; conditions: DSEK cell incubation, supernatant every 24 hours
Experimental: Now, in the DSEK cell incubation, 150 μl/well of the supernatant liquid of the medium were recovered every 24 hours and influence of 4-hydroxy-2-cyclopenten-1-one or 4,5-dihydroxy-2-pentenal on the production of cytokines (human TGF-β, human FGF-β, human IL-1α and human IL-10) was measured using an ELISA-kit specific to each of the cytokine (the kit manufactured by INTERGEN or human FGF-β and human IL-10; and the kit manufactured by Promega for human IL-1α and human TGF-β).

HL-60 cells [2] = experiment: observation of apoptosis under an optical microscope; assay type: cell-based, human; conditions: HL-60, 24 hours
Experimental: (1) HL-60 cells (ATCC CCL-240) incubated at 37° C. in an RPMI 1640 medium (manufactured by BioWhittaker) containing 10% of fetal bovine serum (manufactured by JRH) treated at 56° C. for 30 minutes were suspended in an RPMI 1640 medium to make the concentration 2.5×10^5 cells/5 ml.
To 5 ml of this suspension were added 10 μl of 12.5 mM, 25 mM, 50 mM or 100 mM of a 70% ethanolic solution of 4,5-dihydroxy-2-pentenal prepared in Example 6-(1), 0.05 mM, 0.5 mM, 5 mM or 50 mM of a 70% ethanolic solution of 4-hydroxy-2-cyclopenten-1-[…] prepared in Example 6-(1), 5 mM, 10 mM or 20 mM of a 70% ethanolic solution of 4-(9-adeninyl)-2-cyclopenten-1-one prepared in Example 4-(4), 2.5 mM, 5 mM, 15 mM or 25 mM of a 70% ethanolic solution of 4-(9-guaninyl)-2-cyclopenten-1-one prepared in Example 4-(5), 75 mM, 150 mM or 300 mM of a 70% ethanolic solution of 1,5-epoxy-1-hydroxy-3-penten-2-one prepared in Example 5-(2) or 5 mM, 25 mM or 50 mM of a 70% ethanolic solution of 2-(trans-3,4-dihydroxy-1-butenyl)-4-(trans-2-formylvinyl)-1,3-dioxolane prepared in Example 6-(2) followed by incubating at 37° C. in the presence of 5% carbon dioxide gas for 24 hours.
Incidentally, such phenomena were not noted in the incubated cells to which […] of 70% ethanolic solution were added used as a control.

[3] = 24 hours, Example 15-(3), read-out: IC50
[4] = 48 hours, Example 15-(2), read-out: IC50, 50% cell growth inhibiting concentration
[5] = 72 hours, Example 15-(3), read-out: IC50
[6] = 96 hours, Example 15-(2), read-out: IC50, 50% cell growth inhibiting concentration

Structure (SMILES)	Degree of Cell Growth (DSEK cells; 50 μM, 24 hours)	Degree of Cell Growth (DSEK cells; 50 μM, 48 hours)	Degree of Cell Growth (DSEK cells; 50 μM, 72 hours)	Degree of Cell Growth (DSEK cells; 50 μM, 96 hours)	Degree of Cell Growth (DSEK cells; 75 μM, 24 hours)	Degree of Cell Growth (DSEK cells; 75 μM, 48 hours)	Degree of Cell Growth (DSEK cells; 75 μM, 72 hours)	Degree of Cell Growth (DSEK cells; 75 μM, 96 hours)	Degree of Cell Growth (DSEK cells; 100 μM, 24 hours)	Degree of Cell Growth (DSEK cells; 100 μM, 48 hours)	Degree of Cell Growth (DSEK cells; 100 μM, 72 hours)	Degree of Cell Growth (DSEK cells; 100 μM, 96 hours)	Degree of Cell Growth (DSEK cells; 150 μM, 24 hours)	Degree of Cell Growth (DSEK cells; 150 μM, 48 hours)	IC50 (DSEK cells; [3])	IC50 (DSEK cells; [5])	inhibition of growth of rheumatism cells / antirheumatic activity (DSEK cells)	IC50 (HL-60 cells [1])	production of human IL-1α (human IL-1α)	final concentration at which aggregation of nuclei, reduction in size of the cells and formation of apoptic body were confirmed (HL-60 cells [2])	also measured
O=C1C=CC(O)C1 (centres unmarked) [4-hydroxy-2-cyclopenten-1-one]	0.57 A450-650	0.71 A450-650	0.73 A450-650	0.54 A450-650	0.51 A450-650	0.68 A450-650	0.68 A450-650	0.55 A450-650	0.50 A450-650	0.64 A450-650	0.67 A450-650	0.51 A450-650	0.46 A450-650	0.55 A450-650	207 µM	60 µM	significant inhibition	25.5 µM	inhibited		Degree of Cell Growth (DSEK cells; 150 μM, 72 hours): 0.63 A450-650; Degree of Cell Growth (DSEK cells; 150 μM, 96 hours): 0.50 A450-650; IC50 (DSEK cells; [4]): 60 µM; IC50 (DSEK cells; [6]): 35 µM
O=C/C=C/C1COC(/C=C/C(O)CO)O1 (stereo not drawn) [2-(trans-3,4-dihydroxy-1-butenyl)-4-(trans-2-formylvinyl)-1,3-dioxolane]															267 µM	68 µM	significant inhibition	74.4 µM	activated	≥ 80 µM	
O=CC=CC(O)CO (single isomer, unassigned) [4,5-dihydroxy-2-pentenal, trans-4,5-dihydroxy-2-pentenal]	1.12 A450-650	0.83 A450-650	0.96 A450-650	0.98 A450-650	1.11 A450-650	0.77 A450-650	0.67 A450-650	0.59 A450-650	1.02 A450-650	0.63 A450-650	0.54 A450-650	0.59 A450-650	0.96 A450-650	0.61 A450-650	232 µM	119 µM	significant inhibition	124 µM	activated	≥ 1 µM	Degree of Cell Growth (DSEK cells; 150 μM, 72 hours): 0.41 A450-650; Degree of Cell Growth (DSEK cells; 150 μM, 96 hours): 0.55 A450-650; IC50 (DSEK cells; [4]): 165 µM; IC50 (DSEK cells; [6]): 75 µM
Nc1nc2c(ncn2C2C=CC(=O)C2)c(=O)[nH]1 (centres unmarked) [4-(9-guaninyl)-2-cyclopenten-1-one]															132 µM	67 µM	significant inhibition	67.9 µM	activated	≥ 39 µM	
